Results reported in a melting point compilation (Tetko et al.; mined from patent text by program, amines drawn as free bases though some values may be those of a salt).

Row | Compound | melting point [°C]
1 | CC1(C)CC(OC(=O)N=NC(=O)OC2CC(C)(C)N(OC3CCCCC3)C(C)(C)C2)CC(C)(C)N1OC1CCCCC1 | 189 to 191
2 | Cc1nn(-c2ccc(Cl)nn2)c(C)c1Br | 143 to 145
3 | COc1ccc(C2CNC(=O)C2)cc1OC(C)C(O)CN1CCN(c2ccccc2)CC1 (stereo not given) | 116 to 118
4 | CCOC(=O)COc1ccc(Br)cc1C1C(C(=O)OCC)=C(C)NC(C)=C1C(=O)OCC | 153 to 154
5 | COC(=O)c1cnc(Cl)c(OC)c1 | 83 to 85
6 | CCOC(=O)c1cc2cc(N=[N+]=[N-])ccc2[nH]1 | 140
7 | CCOC(=O)c1cn(C2CC2)c2c(F)c(-c3cc(C)nc(C)c3)c(F)cc2c1=O | 186 to 187
8 | CCCCc1ccc(CCCCC(NC(C)=O)(C(=O)OCC)C(=O)OCC)cc1 | 60 to 61
9 | Cc1ccc2c(c1)Sc1ccc(F)cc1C(N1CCN(CCN3CCOC3=O)CC1)C2 (stereo not given) | 147 to 149
10 | COc1cc(OC)c2c(=O)[nH]c(-c3cc(C)c(OCCN4C(=O)CN(C(C)C)C4=O)c(C)c3)nc2c1 | 219 to 221
11 | CN(C=C(S(=O)(=O)c1ccccc1)S(=O)(=O)c1ccccc1)c1ccc(Cl)cn1 | 205 to 206
12 | COC(=O)NS(=O)(=O)c1cccc([N+](=O)[O-])c1 | 121 to 123
13 | CCCCC(C(=O)O)n1cncn1 (stereo not given) | 141 to 143
14 | CN(C)C(=O)c1cc(O)ccc1C=Cc1ccc(O)cc1 | 184 to 188
15 | COC(=O)c1cnn2c(C(F)(F)F)cc(O)nc12 | 149 to 150
16 | O=C1CC(C(=O)O)Oc2ccccc21 (stereo not given) | 170 to 171
17 | Cc1nc(-c2ccc(C#CC3(O)CN4CCC3CC4)cc2)no1 (single isomer, unassigned; (-)) | 211 to 212
18 | O=C1c2ccccc2C(=O)N1CCSCc1ccco1 | 59 to 61
19 | O=C(O)c1cc(-c2ccc(OCc3ccccc3)cc2)c(=O)n2ccc3ccsc3c12 | 197 to 199
20 | COc1ccc(-c2ccc(C)nc2-c2ccc(O)cc2)cc1 | 190
21 | O=C1N(Cc2ccccn2)c2ccccc2C12COc1cc3c(cc12)OCC3 (stereo not given) | 198 to 200
22 | CC(C)(C)NS(=O)(=O)c1cccc(NC(=O)c2cnn3c(C(F)(F)F)cc(-c4ccc(C(F)(F)F)cc4)nc23)c1 | 232
23 | CCOC(=O)c1cnoc1-c1ccc(Cl)c(Cl)c1 | 108 to 110
24 | CC1(C=O)CC1(c1cccc(F)c1)c1cccc(F)c1 (stereo not given) | 92 to 93
25 | Nc1cc(Oc2ccc3c(C(=O)O)cccc3c2)ncn1 | 288 to 290

Row | Compound | melting point [°C]
26 | C[C@@H](N1CCN(c2ccc(Cl)cc2)C1=O)[C@@]1(c2ccc(F)cc2F)CO1 | 130 to 131
27 | O=C(O)Cc1cc([N+](=O)[O-])ccc1Sc1ccccc1 | 138 to 140
28 | N=C(NO)C1(c2ccccc2Br)CC1 | 164 to 167
29 | O=C(C#Cc1ccc(C(F)(F)F)cc1Cl)Nc1ccc(OCCn2cccn2)cc1 | 120 to 125
30 | O=C(O)C(=O)Nc1cc(NC(=O)C(=O)O)cc(C(=O)O)c1 | > 320
31 | CN(CCNC(=O)c1ccccc1)C(=O)c1ccccc1 | 121
32 | NCCc1ccc(OCc2ccccc2)c(NC(N)=O)c1 | 176 to 180
33 | CCCNP(=O)(OC)N1CC(NC(=O)OCc2ccccc2)C1=O (stereo not given) | 121 to 123
34 | Clc1ccc2c(n1)[nH]c1ccc(Br)cc12 | > 220
35 | O=C(Nc1cccc2c1C(=O)c1c-2n[nH]c1-c1ccc(C(=O)N2CCC[C@@H]2CN2CCCC2)s1)NN1CCOCC1 | 166 to 167
36 | O=c1[nH]ncc2[nH]c(-c3ccc(OC(F)F)c(OC4CC4)c3)c(Cc3ccccc3F)c12 | 202 to 204
37 | Cc1cc(-c2cccc(NC(=O)N[C@@H]3c4cc(C#N)ccc4OC(C)(C)[C@H]3O)c2)nn1C | 120 to 130
38 | CCOC(=O)C1=C(COCCNS(N)(=O)=O)NC(C)=C(C(=O)OC)C1c1cccc(Cl)c1Cl (stereo not given) | 89 to 90
39 | N#Cc1cc(F)c(-n2ncc(=O)[nH]c2=O)cc1F | > 250
40 | Nc1ccc2c(c1)C(c1ccccc1Cl)=CCC(=O)N2 | 192
41 | COc1ccc(Cn2c(=O)c3ccc(Cl)cc3n(CCCCBr)c2=O)cc1 | 107 to 109
42 | CCOC(=O)C1=C(C)NC(COC(N)=O)=C(C(=O)OCC)C1c1ccccc1[N+](=O)[O-] (stereo not given) | 128 to 132
43 | OCC1OC(n2c(Cl)nc3cc(Cl)c(Cl)cc32)C(F)C1O (stereo not given) | 223
44 | COCCc1nc2c(N)nc3ccc(CCC(=O)N(C)C)cc3c2n1CCCN1CCCC1=O | 184 to 186
45 | COC(=O)c1cccc(OCc2cc(Br)cs2)c1C(=O)OC | 65
46 | COc1ccc(Oc2ccc(C(=O)N(C(C)C)C3CCCCC3)cc2)cc1OC | 107
47 | COc1ccc(CC2(C(=O)N[C@@H](Cc3ccc(NC(=O)c4c(Cl)cccc4Cl)cc3)C(=O)O)CCCCC2)cc1 | 136 to 140
48 | Cc1nnc(-c2ccc3occ(C#N)c3c2)o1 | 188 to 189
49 | Cc1nc2c3c(ccc2n1C)[C@@H](O)[C@H](O)[C@@H](c1ccccc1)N3 | 225
50 | COC(=O)CCCCCCC(=O)Nc1ccc(C(=O)NN=C2C(=O)Nc3ccc(I)cc32)cc1 | 268

Row | Compound | melting point [°C]
51 | COc1cc2ncc(C#N)c(Nc3cccc(CO)c3)c2cc1OC | 250 to 255
52 | O=C1CC(c2ccccc2)CC(=O)C1C(=O)c1ccc(Cl)cc1[N+](=O)[O-] (stereo not given) | 144 to 145
53 | N#CCc1ccccc1CCc1ccc(Br)cc1 | 59 to 60.5
54 | Cc1cccc2c1c(N1CCOCC1)nc1c(-c3nc(C4CC4)no3)ncn12 | 262 to 266
55 | Cc1oc(-c2ccccc2)nc1COc1ccc(COc2nn(-c3ccccc3)cc2C=O)cc1 | 152 to 153
56 | O=S(=O)(CCl)N(Cc1cccnc1)c1ccc(Cl)cc1 | 98 to 100
57 | CC(C)(C)OC(=O)C1C(C#CC(=O)O)C1(C)C (stereo not given) | 144
58 | CCCc1nn(C)c2c(=O)[nH]c(-c3cc(C(=O)O)ccc3OCC)nc12 | 285 to 288
59 | O=C(Nc1ccccc1N1CCc2cc(Cl)ccc21)c1ccccc1 | 44 to 46
60 | O=[N+]([O-])c1ccc(C#CCCN2CC=C(c3ccccc3)CC2)nc1 | 133 to 134
61 | Nc1nc(N)nc(-c2ccc(S(=O)(=O)c3ccccc3)cc2)n1 | > 250
62 | Cc1nn(C)c2c1nc(O)c1c(C(=O)O)cnn12 | > 300
63 | COc1ccc(-c2[nH]nc3c2C(=O)c2c(NC(=O)Cc4ccc(OC)c(OC)c4)cccc2-3)cc1 | > 300
64 | CC(=O)N(O)Cc1ccc(C(O)C#Cc2cccs2)cc1 (stereo not given) | 125 to 126
65 | CCOC(=O)c1ccc2oc(CN3CCN(c4ccc(Cl)nn4)CC3)nc2c1 | 140
66 | COCCOC(=O)c1cc(-c2c(C(F)(F)F)nc(OC)[nH]c2=O)c(F)cc1Cl | 63 to 65
67 | C=CCOc1ccc(-c2cc(C(=O)NCc3ccc(OC(C)(C)C(=O)O)c(C)c3)nn2C)cc1 | 138
68 | O=C1CC2(CCCC2)C(O)C(=O)N1CCCCN1CCN(c2ncccn2)CC1 (stereo not given) | 110
69 | Cc1c(SCCCSc2ccc3ncc([N+](=O)[O-])n3n2)ccnc1CO | 127 to 129
70 | CNC(=O)Nc1ccc(S(N)(=O)=O)cc1 | 211 to 213
71 | CN1CCC2(CC1)CNc1cc(Cl)ccc12 | 172 to 173
72 | O=[N+]([O-])c1cc(-c2nnn[nH]2)ccc1OCc1ccccc1 | 178 to 180
73 | O=C1Nc2ccccc2OC1c1ccccc1 (stereo not given) | 146
74 | CCOC(=O)C1=C(NC(=O)Nc2cc(C(=O)OC(C)C)c(F)cc2Br)CCC1 | 166 to 168
75 | CC1CC(C)(C)OOC(C)(CCC(=O)NNC(=O)CCC(=O)O)O1 (stereo not given) | 122 to 126

Row | Compound | melting point [°C]
76 | O=C1CCN(C(=O)c2cccs2)CC1 | 81 to 83
77 | CC(C)(C)OC(=O)N1CCC[C@@H](OC(=O)c2ccc(OC(C)(C)C)cc2)[C@H](NC(=O)c2ccc(OC(C)(C)C)cc2)C1 | 126 to 128
78 | CCOC(=O)C1CN(C)c2nc(Cl)ncc2C1=O (stereo not given) | 175
79 | CCCCCCC(C(=O)O)n1nnc(NC(=O)c2ccccc2C(=O)O)n1 (stereo not given) | 140 to 142
80 | COc1ccc(C(=O)c2cc(C(C)(C)C)c(O)c(C(C)(C)C)c2)cc1 | 141 to 142
81 | Cc1oc2c(C(O)CO)cccc2c1C (stereo not given) | 93 to 95
82 | COC(=O)c1ccc(OCC2CN(c3ccc(N)cc3)C(=O)O2)cc1 (stereo not given) | 139 to 142
83 | c1csc(-c2nc3cnccc3[nH]2)c1 | 265 to 268
84 | COc1nc(N)nc(OCC(F)(F)F)n1 | 78 to 80
85 | CCOC(=O)C(=O)c1cc(C)c(C(=O)c2ccccc2[N+](=O)[O-])n1C | 138 to 140
86 | CC(=O)SCC(Cc1ccc(F)cc1)C(=O)Nc1cccc(C(=O)O)c1 (stereo not given) | 172 to 174
87 | COC(=O)CC1COc2cc(OCc3csc(-c4ccccc4)n3)ccc21 (stereo not given) | 116 to 117
88 | CCNC(=O)C(C)Oc1ncn(-c2cccc(C(F)(F)F)c2)n1 (stereo not given) | 135 to 137
89 | CC(C)(C)OC(=O)N1CCC(C(=O)c2cccs2)CC1 | 154 to 156
90 | NS(=O)(=O)c1nccn1-c1nccs1 | 157 to 162
91 | CN1C(c2ccc(C#N)cc2)=NC(C(F)(F)F)(C(F)(F)F)C1NC(=O)c1ccc(CF)cc1 (stereo not given) | 189 to 190
92 | CCCN(CC(=O)Nc1cnc(C)nc1N(CC)CC)c1ccccc1 | 96.6 to 98.1
93 | O=C(Nc1csc(-c2ccncc2)n1)Nc1cccc2c1C1CCCCN1C2=O (stereo not given) | 152
94 | O=C1c2ccccc2C(=O)N1CCc1cc(-c2ccc(F)cc2)no1 | 155 to 156
95 | COC(=O)CCC(C)C1CC=C2C3=C(CCC21C)C1(C)CCC(O)C(C)(C)C1CC3 (stereo not given) | 156 to 157
96 | O=c1cnc(-c2ccccc2)nn1CC(F)(F)F | 129 to 131
97 | CCOC(=O)Nc1csc2cc(O)ccc12 | 159 to 160
98 | COc1ccc(C2(O)CCN(CC3CN(c4cccc(OC)c4)C(=O)O3)CC2)cc1 (stereo not given) | 158 to 160
99 | CC(C)(C)c1cc(-c2noc(N)n2)cc(C(C)(C)C)c1O | 202 to 204
100 | COc1cccc2c1CCC(CN1CCC(O)(c3ccccc3)CC1)C2=O (stereo not given) | 163 to 165
